Literature values as cited in patent US9968555B2, “Liposomal formulations that form drug nanocrystals after freeze-thaw” (ARADIGM CORPORATION, priority 2014, dated 2018).
≈ marks a conversion by molar mass, not a printed value.

System: M. avium

## O=C(O)c1cn(C2CC2)c2cc(N3CCNCC3)c(F)cc2c1=O [ciprofloxacin]
  minimum inhibitory concentration (MIC): 5 µg/mL (≈ 15.1 µM)
